Laboratory results reported in the supplement of paper PMC10307832.

How the values were obtained:
Test in all cases: relative viability (nuclei count vs DMSO), 5 days (fraction); higher = more cells survive
Seliciclib + Foretinib = compound: CC[C@H](CO)Nc1nc(NCc2ccccc2)c2ncn(C(C)C)c2n1 [Seliciclib] + COc1cc2c(Oc3ccc(NC(=O)C4(C(=O)Nc5ccc(F)cc5)CC4)cc3F)ccnc2cc1OCCCN1CCOCC1 [Foretinib] (partner 0.25 µM)
Outline: (§1)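 Values are medians from duplicate plates. Each reflects relative viability, defined as the nuclei count of treated wells over that of vehicle wells. Lung cancer cell lines in 1536-well plates were pin-tool dosed one day after seeding with one drug alone or with a fixed anchor-drug dose plus five library-drug doses (not always all listed) in √10 steps, then fixed, stained and imaged at 4× after 5 days.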

Seliciclib + Tozasertib = compound: CC[C@H](CO)Nc1nc(NCc2ccccc2)c2ncn(C(C)C)c2n1 [Seliciclib] + Cc1cc(Nc2cc(N3CCN(C)CC3)nc(Sc3ccc(NC(=O)C4CC4)cc3)n2)n[nH]1 [Tozasertib] (partner 0.1 µM)
Outline: as §1

Seliciclib + AZD7762 = compound: CC[C@H](CO)Nc1nc(NCc2ccccc2)c2ncn(C(C)C)c2n1 [Seliciclib] + NC(=O)Nc1cc(-c2cccc(F)c2)sc1C(=O)N[C@H]1CCCNC1 [AZD7762] (partner 0.2 µM)
Outline: as §1

Seliciclib + Luminespib = compound: CC[C@H](CO)Nc1nc(NCc2ccccc2)c2ncn(C(C)C)c2n1 [Seliciclib] + CCNC(=O)c1noc(-c2cc(C(C)C)c(O)cc2O)c1-c1ccc(CN2CCOCC2)cc1 [Luminespib] (partner 0.01 µM)
Outline: as §1

Row | Cell Line | relative viability (Seliciclib + Foretinib; first compound 0.08 µM) | relative viability (Seliciclib + Foretinib; first compound 0.253 µM) | relative viability (Seliciclib + Foretinib; first compound 0.8 µM) | relative viability (Seliciclib + Foretinib; first compound 2.53 µM) | relative viability (Seliciclib + Foretinib; first compound 8 µM) | relative viability (Seliciclib + Tozasertib; first compound 0.08 µM) | relative viability (Seliciclib + Tozasertib; first compound 0.253 µM) | relative viability (Seliciclib + Tozasertib; first compound 0.8 µM) | relative viability (Seliciclib + Tozasertib; first compound 2.53 µM) | relative viability (Seliciclib + Tozasertib; first compound 8 µM) | relative viability (Seliciclib + AZD7762; first compound 0.08 µM) | relative viability (Seliciclib + AZD7762; first compound 0.253 µM) | relative viability (Seliciclib + AZD7762; first compound 0.8 µM) | relative viability (Seliciclib + AZD7762; first compound 2.53 µM) | relative viability (Seliciclib + AZD7762; first compound 8 µM) | relative viability (Seliciclib + Luminespib; first compound 0.08 µM) | relative viability (Seliciclib + Luminespib; first compound 0.253 µM) | relative viability (Seliciclib + Luminespib; first compound 0.8 µM) | relative viability (Seliciclib + Luminespib; first compound 2.53 µM) | relative viability (Seliciclib + Luminespib; first compound 8 µM)
1 | HCC-366 | 0.917 | 0.97 | 0.786 | 0.93 | 0.762 | 0.135 | 0.0662 | 0.155 | 0.387 | 0.0931 | 0.291 | 0.274 | 0.388 | 0.409 | 0.481 |  |  |  |  | 
2 | HCC-827 | 1.01 | 1.04 | 0.968 | 0.972 | 0.925 | 0.415 | 0.413 | 0.42 | 0.383 | 0.324 | 0.211 | 0.19 | 0.217 | 0.209 | 0.172 | 0.519 | 0.589 | 0.55 | 0.829 | 0.588
3 | HOP-62 | 1.17 | 1.18 | 1.1 | 1.17 | 0.993 | 0.388 | 0.354 | 0.38 | 0.377 | 0.244 | 0.63 | 0.407 | 0.394 | 0.923 | 0.822 | 0.863 | 0.933 | 0.919 | 1 | 0.851
4 | IA-LM | 1.18 | 1.48 | 1.04 | 1.1 | 0.925 |  |  |  |  |  |  |  |  |  |  |  |  |  |  | 
5 | LC-2-ad | 0.949 | 0.966 | 0.865 | 0.747 | 0.852 | 0.55 | 0.479 | 0.429 | 0.426 | 0.438 | 0.839 | 0.882 | 0.791 | 0.741 | 0.853 | 0.895 | 1.02 | 0.988 | 0.985 | 0.834
6 | LCLC-97TM1 | 0.936 | 0.952 | 0.961 | 0.793 | 0.72 | 0.355 | 0.248 | 0.243 | 0.168 | 0.153 | 0.232 | 0.258 | 0.432 |  | 0.392 | 0.843 | 0.81 | 0.449 | 0.684 | 0.469
7 | LCLC-103H | 0.812 | 0.878 | 0.708 | 0.739 | 0.589 | 0.443 | 0.583 | 0.532 | 0.434 | 0.399 | 0.793 | 0.676 | 0.65 | 0.696 | 0.74 | 1.02 | 0.958 | 0.763 | 0.993 | 0.774
8 | NCI-H520 | 0.759 |  | 0.826 | 0.76 | 0.858 | 0.47 |  | 0.406 | 0.459 | 0.573 |  |  |  |  |  | 0.234 |  | 0.175 | 0.315 | 0.205
9 | NCI-H522 |  |  |  |  |  | 0.711 | 0.523 | 0.547 | 0.49 | 0.614 | 0.862 | 0.717 | 0.863 | 0.952 | 0.873 | 1.05 | 0.954 | 1.15 | 1.12 | 0.938
10 | NCI-H661 | 1.03 | 0.936 | 0.975 | 0.945 | 0.636 | 0.338 | 0.362 | 0.373 | 0.359 | 0.355 |  |  |  |  |  | 0.9 | 1.07 | 0.853 | 0.809 | 0.756
